Test results: patent US20130101628A1 (NORTHWESTERN UNIVERSITY, priority 2011, published 2013)

Key:
[1] = molecular target: T1, VEGF receptor 1 (VEGFR1 or Flt-1) (Homo sapiens, UniProt P17948); assay: Sandwich ELISA of phosphorylated VEGFR1 in lysates of stimulated HUVEC; format: cell-based; details: HUVEC, native VEGF 100 ng/ml positive control, 2 minutes exposure
T1 construct: host or cells: HUVEC
Protocol: (§1) Human umbilical vein endothelial cells (HUVECs) and complete endothelial cell growth media (EGM) were purchased (Genlantis, San Diego, Calif.), passaged two times following receipt, and cryo-preserved in media with 5% DMSO. Cells were thawed as needed and grown to confluence in a […] flasks (VWR Falcon) prior to plating for experiments.
(§2) Phosphorylation of both VEGFRI and VEGFR2 was assayed using commercially available assay kit (R&D Systems, Minneapolis, Minn.) following the recommended protocol. First, confluent HUVECs plated in 24 well plates were starved for 5 hours in serum-free defined media (SFDM, Genlantis) specifically designed to maintain cells in a growth factor-free setting for growth factor signaling and metabolic assays. Following starvation, the various treatments were dissolved in SFDM to a concentration of 1 μM. […] Cells were exposed to treatment for 2 minutes. To evaluate the time-course of phosphorylation the same protocol was followed and cells were exposed to VEGF-PA for 0, 1, 3, 5, 10, 15, 20, 25, 30, 40, 50, and 60 minutes.

[2] = molecular target: T2, VEGF receptor 2 (VEGFR2 or KDR) (Homo sapiens, UniProt P35968); assay: Sandwich ELISA of phosphorylated VEGFR2 in lysates of stimulated HUVEC; format: cell-based
T2 construct: host or cells: HUVEC
T2 sequence (P35968 20-1356): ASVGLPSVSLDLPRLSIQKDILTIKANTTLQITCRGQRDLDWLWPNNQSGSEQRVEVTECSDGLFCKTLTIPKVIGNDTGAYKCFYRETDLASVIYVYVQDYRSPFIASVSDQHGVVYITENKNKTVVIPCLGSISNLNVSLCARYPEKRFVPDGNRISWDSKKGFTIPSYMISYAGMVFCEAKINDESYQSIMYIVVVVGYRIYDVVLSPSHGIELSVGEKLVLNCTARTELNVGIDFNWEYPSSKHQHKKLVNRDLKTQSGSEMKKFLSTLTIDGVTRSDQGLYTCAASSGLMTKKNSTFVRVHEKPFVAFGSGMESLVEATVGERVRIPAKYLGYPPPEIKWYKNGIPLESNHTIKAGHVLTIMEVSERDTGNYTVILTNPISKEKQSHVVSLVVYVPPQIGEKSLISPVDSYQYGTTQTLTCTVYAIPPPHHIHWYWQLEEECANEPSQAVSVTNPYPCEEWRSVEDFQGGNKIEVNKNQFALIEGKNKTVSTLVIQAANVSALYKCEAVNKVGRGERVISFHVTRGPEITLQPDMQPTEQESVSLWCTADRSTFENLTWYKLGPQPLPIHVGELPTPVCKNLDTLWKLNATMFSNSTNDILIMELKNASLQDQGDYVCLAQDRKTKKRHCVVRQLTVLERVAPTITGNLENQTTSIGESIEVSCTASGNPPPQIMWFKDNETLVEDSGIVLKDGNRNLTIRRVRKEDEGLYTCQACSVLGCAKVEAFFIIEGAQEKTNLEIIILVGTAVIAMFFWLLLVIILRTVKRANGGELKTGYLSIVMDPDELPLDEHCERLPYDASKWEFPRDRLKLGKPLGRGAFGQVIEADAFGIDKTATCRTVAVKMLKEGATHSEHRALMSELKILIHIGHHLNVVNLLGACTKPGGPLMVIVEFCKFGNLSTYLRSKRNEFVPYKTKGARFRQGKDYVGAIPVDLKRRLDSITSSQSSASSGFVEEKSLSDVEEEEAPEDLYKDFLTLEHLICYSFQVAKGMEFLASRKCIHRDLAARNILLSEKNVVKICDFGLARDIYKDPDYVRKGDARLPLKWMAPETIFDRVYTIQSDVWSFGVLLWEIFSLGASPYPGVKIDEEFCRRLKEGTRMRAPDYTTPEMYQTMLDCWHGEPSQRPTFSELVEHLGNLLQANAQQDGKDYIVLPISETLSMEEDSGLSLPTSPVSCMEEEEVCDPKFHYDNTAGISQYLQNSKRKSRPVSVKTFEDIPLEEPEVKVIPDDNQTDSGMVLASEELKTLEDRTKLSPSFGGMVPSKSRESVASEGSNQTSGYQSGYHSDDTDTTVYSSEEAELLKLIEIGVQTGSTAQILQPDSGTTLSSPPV
Protocol: as §1, §2

T1 sequence (P17948 27-1338): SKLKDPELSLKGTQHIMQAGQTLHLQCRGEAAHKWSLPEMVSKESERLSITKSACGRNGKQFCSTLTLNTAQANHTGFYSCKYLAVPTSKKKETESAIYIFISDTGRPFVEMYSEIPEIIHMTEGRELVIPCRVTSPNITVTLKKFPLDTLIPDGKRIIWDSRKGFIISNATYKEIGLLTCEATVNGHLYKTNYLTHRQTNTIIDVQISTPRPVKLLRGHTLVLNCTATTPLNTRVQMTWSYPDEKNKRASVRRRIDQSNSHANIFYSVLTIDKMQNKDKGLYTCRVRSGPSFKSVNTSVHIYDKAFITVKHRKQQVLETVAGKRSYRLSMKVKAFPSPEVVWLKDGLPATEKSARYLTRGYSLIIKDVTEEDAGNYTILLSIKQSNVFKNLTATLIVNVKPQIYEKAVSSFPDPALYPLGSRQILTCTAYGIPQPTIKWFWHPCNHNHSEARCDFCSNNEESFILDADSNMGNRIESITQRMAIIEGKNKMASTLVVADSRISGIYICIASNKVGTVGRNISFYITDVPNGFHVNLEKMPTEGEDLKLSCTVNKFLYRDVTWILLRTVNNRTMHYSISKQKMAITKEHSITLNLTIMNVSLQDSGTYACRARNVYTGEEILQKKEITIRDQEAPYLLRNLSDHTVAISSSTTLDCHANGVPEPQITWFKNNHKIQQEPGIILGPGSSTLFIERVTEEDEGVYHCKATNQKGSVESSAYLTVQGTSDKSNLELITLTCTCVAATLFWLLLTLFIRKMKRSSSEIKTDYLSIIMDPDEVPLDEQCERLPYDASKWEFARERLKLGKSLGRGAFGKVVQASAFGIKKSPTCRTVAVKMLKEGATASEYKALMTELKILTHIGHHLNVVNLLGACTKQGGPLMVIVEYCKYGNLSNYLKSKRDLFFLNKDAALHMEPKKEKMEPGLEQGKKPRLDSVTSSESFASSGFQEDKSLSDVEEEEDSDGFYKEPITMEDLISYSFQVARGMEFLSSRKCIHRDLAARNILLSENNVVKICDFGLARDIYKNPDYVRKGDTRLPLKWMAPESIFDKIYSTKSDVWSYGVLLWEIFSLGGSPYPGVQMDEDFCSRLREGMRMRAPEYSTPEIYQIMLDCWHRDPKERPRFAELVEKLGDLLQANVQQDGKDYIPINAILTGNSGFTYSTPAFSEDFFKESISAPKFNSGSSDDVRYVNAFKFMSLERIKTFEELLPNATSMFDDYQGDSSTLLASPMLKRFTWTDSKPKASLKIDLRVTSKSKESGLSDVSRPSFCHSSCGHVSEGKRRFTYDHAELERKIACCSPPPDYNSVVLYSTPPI

Substance: VEGF
- amount of phosphorylated VEGFR1, times untreated control [1]: 1.306±0.044
- VEGFR2 phosphorylation level relative to untreated control [2]: 1.311±0.106
